Measurements published in ChEMBL document CHEMBL4732128, “Methylsulfanylpyridine based diheteroaryl isocombretastatin analogs as potent anti-proliferative agents” (Eur J Med Chem, 2021).
Converted amounts (≈) assume the structure as drawn. The source made the active and inactive calls. No cut-off for these calls is given here.

Tests used:
[1] = Aqueous solubility of the compound in pH 7.0 phosphate buffer at 2 mg incubated for 72 hrs by shake flask method; assay type: physicochemical
[2] = Inhibition of bovine brain tubulin polymerization incubated for 30 mins by turbidimetric assay; assay type: tissue-based, Bos taurus
[3] = system: HeLa; assay: Antiproliferative activity against human HeLa cells assessed as inhibition of cell growth after 72 hrs by XTT assay; assay type: functional, cell-based
[4] = system: HL-60; assay: Antiproliferative activity against human HL-60 cells assessed as inhibition of cell growth after 72 hrs by XTT assay; assay type: functional, cell-based; conditions: HL-60, 72 h
[5] = system: HT-29; assay: Antiproliferative activity against human HT-29 cells assessed as inhibition of cell growth after 72 hrs by XTT assay; assay type: functional, cell-based; conditions: HT-29, 72 h
[6] = molecular target: Tubulin (Homo sapiens) (UniProt P68371+Q9H4B7+P0DPH7+P68366+Q13509+Q71U36+P04350+Q3ZCM7+P07437+P68363+Q9BQE3+Q6PEY2+Q13885+Q9BVA1+Q9BUF5); assay: Induction of microtubule disruption in human HeLa cells at 1 uM measured after 24 hrs by immunofluorescence staining based confocal microscopic analysis; assay type: cell-based
[7] = system: HL-60; assay: Induction of cell cycle arrest in human HL-60 cells assessed as accumulation of cells at Sub-G0/G1 phase at 1 nM after 24 to 72 hrs by propidium iodide staining-based flow cytometric analysis; assay type: functional; conditions: time 24-72 hrs
[8] = system: HL-60; assay: Induction of cell cycle arrest in human HL-60 cells assessed as accumulation of cells at G0/G1 phase at 1 nM after 24 to 72 hrs by propidium iodide staining-based flow cytometric analysis; assay type: functional; conditions: time 24-72 hrs
[9] = system: HL-60; assay: Induction of cell cycle arrest in human HL-60 cells assessed as accumulation of cells at S phase at 1 nM after 24 to 72 hrs by propidium iodide staining-based flow cytometric analysis; assay type: functional; conditions: time 24-72 hrs
[10] = system: HL-60; assay: Induction of cell cycle arrest in human HL-60 cells assessed as accumulation of cells at G2/M phase at 1 nM after 24 to 72 hrs by propidium iodide staining-based flow cytometric analysis; assay type: functional; conditions: time 24-72 hrs
[11] = system: HeLa; assay: Induction of cell cycle arrest in human HeLa cells assessed as accumulation of cells at Sub-G0/G1 phase at 1 nM after 24 to 72 hrs by propidium iodide staining-based flow cytometric analysis; assay type: functional; conditions: time 24-72 hrs
[12] = system: HeLa; assay: Induction of cell cycle arrest in human HeLa cells assessed as accumulation of cells at G0/G1 phase at 1 nM after 24 to 72 hrs by propidium iodide staining-based flow cytometric analysis; assay type: functional; conditions: time 24-72 hrs
[13] = system: HeLa; assay: Induction of cell cycle arrest in human HeLa cells assessed as accumulation of cells at S phase at 1 nM after 24 to 72 hrs by propidium iodide staining-based flow cytometric analysis; assay type: functional; conditions: time 24-72 hrs
[14] = system: HeLa; assay: Induction of cell cycle arrest in human HeLa cells assessed as accumulation of cells at G2/M phase at 1 nM after 24 to 72 hrs by propidium iodide staining-based flow cytometric analysis; assay type: functional; conditions: time 24-72 hrs
[15] = system: HT-29; assay: Induction of cell cycle arrest in human HT-29 cells assessed as accumulation of cells at Sub-G0/G1 phase at 1 nM after 24 to 72 hrs by propidium iodide staining-based flow cytometric analysis; assay type: functional; conditions: time 24-72 hrs
[16] = system: HT-29; assay: Induction of cell cycle arrest in human HT-29 cells assessed as accumulation of cells at G0/G1 phase at 1 nM after 24 to 72 hrs by propidium iodide staining-based flow cytometric analysis; assay type: functional; conditions: time 24-72 hrs
[17] = system: HT-29; assay: Induction of cell cycle arrest in human HT-29 cells assessed as accumulation of cells at S phase at 1 nM after 24 to 72 hrs by propidium iodide staining-based flow cytometric analysis; assay type: functional; conditions: time 24-72 hrs
[18] = system: HT-29; assay: Induction of cell cycle arrest in human HT-29 cells assessed as accumulation of cells at G2/M phase at 1 nM after 24 to 72 hrs by propidium iodide staining-based flow cytometric analysis; assay type: functional; conditions: time 24-72 hrs
[19] = system: HL-60; assay: Induction of cell cycle arrest in human HL-60 cells assessed as accumulation of cells at G2/M phase at 100 nM after 24 hrs by propidium iodide staining-based flow cytometric analysis; assay type: functional
[20] = system: HeLa; assay: Induction of cell cycle arrest in human HeLa cells assessed as accumulation of cells at G2/M phase at 100 nM after 24 hrs by propidium iodide staining-based flow cytometric analysis; assay type: functional
[21] = system: HeLa; assay: Induction of apoptosis in human HeLa cells assessed as increase in cell accumulation at sub-G0/G1 phase at 100 nM incubated for 24 hrs by propidium iodide staining based flow cytometry; assay type: functional
[22] = system: HL-60; assay: Induction of apoptosis in human HL-60 cells assessed as increase in cell accumulation at sub-G0/G1 phase at 100 nM incubated for 48 hrs by propidium iodide staining based flow cytometry; assay type: functional
[23] = system: HL-60; assay: Induction of apoptosis in human HL-60 cells assessed as increase in cell accumulation at sub-G0/G1 phase at 100 nM incubated for 72 hrs by propidium iodide staining based flow cytometry; assay type: functional
[24] = system: HeLa; assay: Induction of apoptosis in human HeLa cells assessed as increase in cell accumulation at sub-G0/G1 phase at 100 nM incubated for 48 hrs by propidium iodide staining based flow cytometry; assay type: functional
[25] = system: HeLa; assay: Induction of apoptosis in human HeLa cells assessed as increase in cell accumulation at sub-G0/G1 phase at 100 nM incubated for 72 hrs by propidium iodide staining based flow cytometry; assay type: functional
[26] = system: HL-60; assay: Induction of cell cycle arrest in human HL-60 cells assessed as accumulation of cells at G2/M phase at 100 nM after 48 hrs by propidium iodide staining-based flow cytometric analysis; assay type: functional
[27] = system: HL-60; assay: Induction of cell cycle arrest in human HL-60 cells assessed as accumulation of cells at G2/M phase at 100 nM after 72 hrs by propidium iodide staining-based flow cytometric analysis; assay type: functional
[28] = system: HeLa; assay: Induction of cell cycle arrest in human HeLa cells assessed as accumulation of cells at G2/M phase at 100 nM after 48 hrs by propidium iodide staining-based flow cytometric analysis; assay type: functional
[29] = system: HeLa; assay: Induction of cell cycle arrest in human HeLa cells assessed as accumulation of cells at G2/M phase at 100 nM after 72 hrs by propidium iodide staining-based flow cytometric analysis; assay type: functional
[30] = system: HT-29; assay: Induction of cell cycle arrest in human HT-29 cells assessed as accumulation of cells at G2/M phase at 100 nM after 48 hrs by propidium iodide staining-based flow cytometric analysis; assay type: functional
[31] = system: HT-29; assay: Induction of cell cycle arrest in human HT-29 cells assessed as accumulation of cells at G2/M phase at 100 nM after 72 hrs by propidium iodide staining-based flow cytometric analysis; assay type: functional
[32] = system: HEK293; assay: Induction of mitotic arrest in human HEK293 cells; assay type: cell-based
[33] = system: HEK293; assay: Induction of apoptosis in human HEK293 cells; assay type: cell-based
[34] = system: HeLa; assay: Induction of mitotic arrest in human HeLa cells assessed as increase in MPM-2 expression at 1 uM incubated for 24 to 48 hrs by Western blot analysis; assay type: functional, cell-based; conditions: time 24-48 hrs
[35] = system: HeLa; assay: Induction of apoptosis in human HeLa cells assessed as increase in cleaved PARP level at 1 uM after 24 to 48 hrs by Western blot analysis; assay type: functional, cell-based; conditions: time 24-48 hrs
[36] = system: HeLa; assay: Induction of cell cycle arrest in human HeLa cells assessed as accumulation of cells at G2/M phase after 24 hrs by propidium iodide staining-based flow cytometric analysis; assay type: functional
[37] = system: HeLa; assay: Induction of apoptosis in human HeLa cells assessed as accumulation of cells at sub-G0/G1 phase after 24 hrs by propidium iodide staining-based flow cytometric analysis; assay type: functional, cell-based
[38] = system: HT-29; assay: Induction of cell cycle arrest in human HT-29 cells assessed as accumulation of cells at G2/M phase after 24 hrs by propidium iodide staining-based flow cytometric analysis; assay type: functional
[39] = system: HT-29; assay: Induction of cell cycle arrest in human HT-29 cells assessed as accumulation of cells at G2/M phase at 100 nM after 24 hrs by propidium iodide staining-based flow cytometric analysis; assay type: functional
[40] = system: HT-29; assay: Induction of apoptosis in human HT-29 cells assessed as increase in cell accumulation at sub-G0/G1 phase at 100 nM incubated for 48 hrs by propidium iodide staining based flow cytometry; assay type: functional
[41] = system: HT-29; assay: Induction of apoptosis in human HT-29 cells assessed as increase in cell accumulation at sub-G0/G1 phase at 100 nM incubated for 72 hrs by propidium iodide staining based flow cytometry; assay type: functional
[42] = system: HT-29; assay: Induction of cell cycle arrest in human HT-29 cells assessed as sum of Sub-G0/G1 and G2/M population at 1 uM after 48 hrs by propidium iodide staining based flow cytometry; assay type: functional
[43] = system: HT-29; assay: Induction of cell cycle arrest in human HT-29 cells assessed as sum of Sub-G0/G1 and G2/M population at 10 uM after 48 hrs by propidium iodide staining based flow cytometry; assay type: functional
[44] = system: HT-29; assay: Induction of cell cycle arrest in human HT-29 cells assessed as sum of Sub-G0/G1 and G2/M population at 1 uM after 72 hrs by propidium iodide staining based flow cytometry; assay type: functional
[45] = system: HT-29; assay: Induction of cell cycle arrest in human HT-29 cells assessed as sum of Sub-G0/G1 and G2/M population at 10 uM after 72 hrs by propidium iodide staining based flow cytometry; assay type: functional

`C=C(c1cc(Cl)nc(SC)c1)c1ccc2c(c1)c(C=O)cn2C` gave a solubility thermodynamic at 72 h [1] of 6.3 µg/mL (≈ 18.4 µM), an IC50 [2] of 1600 nM and an IC50 [3] of 72 nM. The IC50 [4] was 38 nM, the IC50 [5] was 876 nM and the Activity [6] was “Active”. The Activity [7] was “inactive”, the Activity [8] was “inactive” and the Activity [9] was “inactive”. For the same compound, the Activity [10] was “inactive”, the Activity [11] was “inactive” and the Activity [12] was “inactive”. For the same compound, the Activity [13] was “inactive”, the Activity [14] was “inactive” and the Activity [15] was “inactive”. The Activity [16] was “inactive”, the Activity [17] was “inactive” and the Activity [18] was “inactive”. It also gave an Activity [19] of 80.1%, an Activity [20] of 56.9% and an Activity [21] of 25.2%. For the same compound, the Activity [22] was 20.9%, the Activity [23] was 32.6% and the Activity [24] was 47.6%. The Activity [25] was 59.1%, the Activity [26] was 40.5% and the Activity [27] was 22%. The Activity [28] was 30.4%, the Activity [29] was 7.9% and the Activity [30] was 11.8%. For the same compound, the Activity [31] was 15.1%, the Activity [32] was “Toxic” and the Activity [33] was “Non-Toxic”. For the same compound, the Activity [34] was “Active”, the Activity [35] was “Active” and the Activity [36] was “Active”. The Activity [37] was “Active” and the Activity [38] was “inactive”.

`CSc1cc(C(=NO)c2ccc3c(c2)c(C#N)cn3C)cc(Cl)n1` showed a solubility thermodynamic at 72 h [1] of 5.1 µg/mL (≈ 14.3 µM), an IC50 [2] of 200 nM and an IC50 [3] of 57 nM. The IC50 [4] was 93 nM, the IC50 [5] was 195 nM and the Activity [6] was “Active”. The Activity [7] was “inactive”, the Activity [8] was “inactive” and the Activity [9] was “inactive”. The Activity [10] was “inactive”, the Activity [11] was “inactive” and the Activity [12] was “inactive”. The Activity [13] was “inactive”, the Activity [14] was “inactive” and the Activity [15] was “inactive”. For the same compound, the Activity [16] was “inactive”, the Activity [17] was “inactive” and the Activity [18] was “inactive”. It also gave an Activity [19] of 77.4%, an Activity [39] of 84.4% and an Activity [20] of 73.2%. The Activity [21] was 15.7%, the Activity [22] was 22.7% and the Activity [23] was 33.1%. For the same compound, the Activity [24] was 35.9%, the Activity [25] was 83.3% and the Activity [40] was 28.1%. It also gave an Activity [41] of 64.7%, an Activity [26] of 39.7% and an Activity [27] of 23.3%. The Activity [28] was 46.9%, the Activity [29] was 4.6% and the Activity [30] was 54.9%. For the same compound, the Activity [31] was 4.7%, the Activity [42] was 91.1% and the Activity [43] was 92.1%. For the same compound, the Activity [44] was 39.1%, the Activity [45] was 40.7% and the Activity [32] was “Toxic”. The Activity [33] was “Non-Toxic”, the Activity [34] was “Active” and the Activity [35] was “Active”. The Activity [36] was “Active”, the Activity [37] was “Active” and the Activity [38] was “Active”.
